Experimental data as given in patent publication US9616089B2, “Polymeric synthetic antidote” (Universite de Liege, priority 2013, dated 2017).

Tests used:
UFH [1] = assay: Neutralization of UFH in human plasma, aPTT test; format: biochemical; conditions: for percentage of neutralization of UFH, mean: antidote 2 μg/mL, plasma spiked with UFH 2 μg/mL, 15 min 37°C
Procedure: (§1) Activated partial thromboplastin time (aPTT) and anti-Xa activity were measured on the freshly isolated plasma using respectively a coagulometer (BCT; Dade Behring—Siemens) and a Microplate reader (Anthos HT3, type 12600). STA-C.K. Prest*2 kit was used. Coatest kit was used to evaluate the concentration of low molecular weight heparin in blood plasma following the reactions depicted below: LMW Heparin+AT→[LMW Heparin·AT] [LMW Heparin·AT]+FXa(excess)→[LMW Heparin·AT·FXa] 2a. S-2222+FXa→Peptide+pNA (yellow)+FXa(residual) 2b.
All PECs were prepared by addition of 100 μL of heparin (10 μg/mL) to 300 μL of plasma. After a pre-incubation of 5 minutes at 37° C., 100 μL of a stock solution of polymers of formula (I) (10 μg/mL) was added to neutralize heparin. After 15 minutes of interaction 37° C. the aPTT analysis was performed. Anti Xa analysis was evaluated according to a similar procedure, except for the final concentrations of heparin and polymer of formula (I) which were […].
In view to assess the pharmacological activity of the polymers of formula (I) to neutralize the action of UFH, polymers of formula (I) were incubated in normal human plasma previously spiked with heparin, analysing afterwards the remaining coagulation activity of plasma using the activated partial thromboplastin time (aPTT) test. This bioassay was indeed typically used to analyse the functionality of the intrinsic pathway of the blood coagulation, using kaolin as synthetic activator of the coagulation. An incubation of 15 min at 37° C. was respected before measuring the aPPT test. The percentage of heparin neutralization in plasma (FIG. 4) was calculated using two different calibration curves of heparin in function of the group age of the donors. Indeed a difference in heparin sensitivity was noticed with aPPT test as a function of the range of age of human donors. Accordingly, two calibration curves of heparin were used, corresponding to the two categories of blood donors: group 1 (average age: 22 years) and group 2 (average age: 52 years).

UFH [2] = assay: Dose-response curve for UFH neutralization in human blood plasma, aPTT bioassay; format: biochemical; conditions: UFH 2 μg/mL in plasma, polymer 1 to 3 μg/mL
Procedure: In view to assess a possible difference in affinity between polymers of formula (I) and heparin versus protamine/heparin, dose-response curves were established, corresponding to a progressive titration of heparin action by increasing concentration of the polymers of formula (I) with aPPT bioassay (FIG. 5). This in vitro study was conducted adopting a fixed plasma concentration of UFH of 2 μg/mL added before the incubation with the polymers of formula (I). The concentration of the polymers of formula (I) was varied from 1 to 3 μg/mL. The mean and standard deviations (SD) were calculated from two independent experiments performed on senior blood donors.

UFH [3] = assay: Neutralization of UFH in human plasma measuring factor Xa (chromogenic Coatest Heparin); format: biochemical; conditions: UFH and antidote 0.4 μg/mL, human plasma 15 min 37°C
Procedure: as §1
Where FXa represents factor Xa and S-2222 represents Bz-Ile-Glu-(γ-OR)-Gly-Arg-pNA (CA: 59068-47-2) (SEQ ID No. 1), a chromogenic substrate cleaved by free FXa to peptide (Bz-Ile-Glu-(γ-OR)-Gly-Arg (SEQ ID No. 2)) and pNA (p-nitroaniline). AT represents antithrombin. Heparin binds to AT, causing a change in the conformation of AT to a form that binds to and sequesters the activity of FXa. Addition of a peptide that competes with AT for heparin will increase the concentration of free FXa. Thus, restoration of the activity of FXa, as indicated by the amount of S-2222 converted to peptide and pNA, provides a measure of the ability of a peptide to neutralize the anticoagulant activity of heparin (provided in technical sheet of Instrumentation Laboratory).
The assay method was calibrated using standard solutions that contain 0.1 μg/mL of AT and heparin at concentrations ranging from 0.01 to 0.07 μg/mL in buffer/normal human plasma supplied with the Coatest kit. The standard solutions were incubated at 37° C. for 3-4 minutes, after which 100 μL of bovine factor Xa (0.71 nkat) were added to 200 μL of each standard solution. The mixtures were incubated at 37° C. for 30 sec, after which 200 μL of S-2222 (0.2 μmol, 37° C.) were added and the reaction mixtures were incubated at 37° C. for exactly 3 minutes. […] The absorbance was measured at 405 nm. The ability of CLC1 and CLC2 to neutralize the anticoagulant activity of heparin was determined by addition of each polymer to heparin solution, and the assay performed as described above. […]

LMWH = assay: Neutralization of LMWH in human plasma measuring factor Xa (chromogenic Coatest Heparin); format: biochemical; conditions: LMWH and antidote 0.4 μg/mL each, human plasma 15 min 37°C
Procedure: Activated partial thromboplastin time (aPTT) and anti-Xa activity were measured on the freshly isolated plasma using respectively a coagulometer (BCT; Dade Behring—Siemens) and a Microplate reader (Anthos HT3, type 12600). STA-C.K. Prest*2 kit was used. Coatest kit was used to evaluate the concentration of low molecular weight heparin in blood plasma following the reactions depicted below: LMW Heparin+AT→[LMW Heparin·AT] [LMW Heparin·AT]+FXa(excess)→[LMW Heparin·AT·FXa] 2a. S-2222+FXa→Peptide+pNA (yellow)+FXa(residual) 2b. […]
The assay method was calibrated using standard solutions that contain 0.1 μg/mL of AT and heparin at concentrations ranging from 0.01 to 0.07 μg/mL in buffer/normal human plasma supplied with the Coatest kit. […] The absorbance was measured at 405 nm. The ability of CLC1 and CLC2 to neutralize the anticoagulant activity of heparin was determined by addition of each polymer to heparin solution, and the assay performed as described above.
The complexation of the synthetic polymers of formula (I) with low molecular weight heparin (LMWH) was assessed in vitro in the same experimental conditions as for UFH, thus using a concentration of heparin and polymers of formula (I) of 0.4 μg/mL. After their incubation of 15 minutes at 37° C., the remaining activity of factor Xa is recorded with the chromogenic assay Coatest Heparin.

UFH [4] = assay: Dose-response UFH neutralization in whole human blood, aPTT test; format: biochemical; conditions: Table 4, UFH 2 μg/mL whole blood
Procedure: In Example 9 several (co-)polymers of formula (I) were tested for neutralization of UFH in whole blood. Dose-response curves were established adopting a fixed concentration of 2 μg/mL UFH added in whole blood collected on sodium citrate. Five minutes after this preconditioning step, UFH neutralization was conducted by adding one of the (co-)polymers listed in Table 4 to 6. The concentration of these polymers was varied from 0.5 to 4 μg/mL in—whole blood. A special care was taken during the addition of the (co-)polymer solution in view to assure a rapid and reproducible homogenization of this solution in whole blood (rapid injection of solution in whole blood, i.e. in less than 1 s), followed directly by 3 up-and-down aspirations to avoid any risk of local over-concentrations. The total dilution arising from the UHF and polymer solutions represents only 10% to avoid any interference with coagulation pathways.
After a 15 minutes incubation period performed at 37° C. under lateral agitation the aPTT test was carried out immediately afterwards in order to determine the residual UFH activity. […] The mean and standard deviations were calculated from two independent experiments performed on senior blood donors initially collected under sodium citrate.

UFH [5] = assay: Neutralization of UFH in whole blood of patients heparinized in vivo (extracorporeal circulation), aPTT test; format: biochemical, human
Procedure: In example 10, several (co-)polymers of formula (I), namely two linear homopolymers of PDMAEMA (samples CS023 and CK169) and two copolymers of PDMAEMA and PEO (samples A61 and BA003) were tested for neutralization of UFH injected on human patients subjected to ExtraCorporeal Circulation (ECC) during a cardiovascular surgical operation. According to the general practice in this clinical context, a fixed dose of 3 mg/kg of UFH is administrated to these patients by intravenous injection.
10 min after this dose injection of UFH, 40 ml of whole blood were collected from the patients. In vitro UFH neutralization was conducted less than 1 hour after blood collection adding one of the (co-)polymers listed in Table 7. The concentration of these polymers ranged from 3.4 to 45 μg/mL in whole blood. A special care was taken during the addition of (co-)polymer solutions in view to ensure a rapid and reproducible homogenization of these (co-)polymers in whole human blood (rapid injection of the solution in whole human blood, i.e. in less than 1 s), followed directly by 3 up-and-down aspirations to avoid any risk of local over-concentrations.
After a 15 minutes incubation period performed at 37° C. under lateral agitation the aPTT test was carried out immediately in order to determine the residual UFH activity. The neutralization effectiveness of the different homopolymers and copolymers and of protamine was estimated from the determination of CMax, i.e. the minimal polymer concentration giving rise to a maximum neutralization of UFH. Therapeutic index (Thind) of the (co-)polymers was established as the drug concentration window giving a pharmacological effect without impairing the coagulation pathways. The mean and standard deviations corresponding to these 3 parameters were calculated from 4 independent experiments performed on senior blood patients.

Protamine
percentage of neutralization of heparin (UFH [1]; 15 minutes after addition of the polymers, human plasma (FIG. 4)): 75%
percentage of neutralization of UFH, mean (UFH [1]; Group 1 donors (average age 22 years)): 75.0%
percentage of neutralization of UFH, mean (UFH [1]; Group 2 donors (average age 52 years)): 76.1%
concentration at the maximum of the heparin neutralization curve (UFH [2]): around 1.6 μg/mL
percentage of inhibition of factor Xa, mean (UFH [3]; Test number 1): 88.1%
percentage of inhibition of factor Xa, mean (UFH [3]; Test number 2): 100.0%
mean inhibition of factor Xa (UFH [3]; mean of two independent experiments): 94.0%
percentage of inhibition of factor Xa (inhibition of heparin), mean (LMWH): 31.0%
CMax (UFH [4]; minimal polymer concentration giving saturation in UFH neutralization): 3.00 µg/mL
IC50 (UFH [4]; polymer concentration leading to 50% of maximal capacity to neutralize UFH): 1.05 µg/mL
aPTT at CMax (UFH [5]; blood of patients given 3 mg/kg UFH): 42.7 s
CMax (UFH [5]; minimal polymer concentration giving maximum neutralization of UFH, patients given 3 mg/kg UFH): 22.5 µg/mL
aPTT response (UFH [5]; protamine concentration of 45 μg/mL): below 70 s
